Measured values taken from patent US6355864B1, “Versatile rpL34 promoter elements and use thereof” (Battelle Memorial Institute, priority 1999, dated 2002).

Experiments:
rpL34 promoter [1] = experiment: Response of rpL34 promoter constructs to wounding and plant hormones in leaf discs of transgenic tobacco; type: in vivo, Nicotiana tabacum; conditions: leaf discs of plants with −1500, m178 or Δ147; 1 μM 2,4-D or 5 μM BA in MS medium, 24 hr; versus wounding alone
Description: Fresh young leaves of independent transgenic tobacco were ground in lysis buffer (50 mM sodium phosphate, pH 7.0. 10 mM EDTA, 0.1% TritonX-100, 0.1% sarkosyl and 10 mM DTT). Tobacco protoplast protein was extracted in the same buffer by sonication on ice twice, 5 seconds each time. […] Approximately 5-10 μg of protein was incubated in the presence of 1 mM 4-methylumbelliferyl β-D-glucuronide in 100 μl of lysis buffer at 37 C. Samples from each reaction were taken at 0, 15, and 30 min intervals and the enzyme reaction was quenched in 0.2 M sodium carbonate (Na2CO3). The flurometer was calibrated with 100, 200, 300, and 400 nM 4-methylumbelliferon in 0.2M sodium carbonate.
Kanamycin resistant T1 seedlings, each containing a unique internally deleted rpL34 promoter, were selected and grown to maturity. Six leaf discs excised from the fourth leaf of each plant by paper punch were randomly pooled and incubated in MS medium with 5 μM BA, 1 μM 2,4-D or no plant hormone (wounding treatment) for 24 hr at room temperature. […] The leaf discs ground immediately after excision in protein extraction buffer served as non-wounded tobacco controls.

rpL34 promoter [2] = conditions: previous promoter analyses (Dai et al. 1996); on top of mechanical wounding; cited from earlier work

Compound | induced GUS activity (rpL34 promoter [1]) | rpL34 promoter activity (rpL34 promoter [2])
O=C(O)COc1ccc(Cl)cc1Cl [2,4-D, 2,4-dichlorophenoxyacetic acid] | induced higher GUS activity than wounding alone | further enhanced
c1ccc(CNc2ncnc3nc[nH]c23)cc1 [BA, benzyladenine] | induced higher GUS activity than wounding alone | further enhanced
